# Laboratory results as given in US9096615B2, “Bridged bicyclic amino thiazine dioxide compounds as inhibitors of beta-secretase and methods of use thereof” (AMGEN INC., priority 2013, dated 2015).
# Like-named read-outs stand apart in the source and are kept apart here.
# Legend:
# BACE1 = BACE1 (Homo sapiens, UniProt P56817); experiment: In vitro enzymatic BACE FRET assay; assay type: biochemical; conditions: average IC50; read-out: BACE1 Enzyme assay IC50
# Method in brief: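 BACE (0.2 nM) pre-incubated 1 h with serially diluted inhibitor in 0.05 M acetate pH 4.2, 10% DMSO, 100 uM genapol; 50 nM FRET peptide substrate added, 1 h incubation. Stopped with Tris to neutral pH; fluorescence read (ex 488, […]).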
# human Bace2 protein = target: T1, human Bace2 protein (Homo sapiens, UniProt Q9Y5Z0); experiment: In vitro enzymatic BACE2 FRET assay; assay type: biochemical; conditions: average IC50; read-out: BACE2 Enzyme assay IC50
# T1 construct: V5 (C); 6-His (C)
# T1 sequence (Q9Y5Z0 63-518): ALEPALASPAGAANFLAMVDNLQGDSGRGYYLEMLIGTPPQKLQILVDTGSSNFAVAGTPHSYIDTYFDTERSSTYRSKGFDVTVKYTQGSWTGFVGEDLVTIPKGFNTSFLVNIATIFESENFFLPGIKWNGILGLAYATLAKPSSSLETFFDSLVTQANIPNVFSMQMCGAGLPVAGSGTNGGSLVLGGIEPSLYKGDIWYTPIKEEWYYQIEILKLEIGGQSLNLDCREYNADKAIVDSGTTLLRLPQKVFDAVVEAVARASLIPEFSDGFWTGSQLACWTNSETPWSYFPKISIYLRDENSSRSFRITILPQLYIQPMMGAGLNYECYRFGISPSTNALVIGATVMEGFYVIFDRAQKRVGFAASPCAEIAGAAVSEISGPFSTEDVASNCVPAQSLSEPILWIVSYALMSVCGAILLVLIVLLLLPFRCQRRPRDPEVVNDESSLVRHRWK
# Method: In Vitro Enzymatic BACE2 FRET (Fluorescence Resonance Energy Transfer) Assay
# Enzyme Assay Data in the Table 3
# The assay buffer used in this screen is 0.05 M acetate, pH 4.2, 10% DMSO final, 100 uM genapol (which is a nonionic detergent, below its Critical Micelle Concentration). The Beta Secretase2 enzyme (human Bace2 protein with C-terminal V5 and 6-His tag; 0.2 nM) is pre-incubated for one hour with inhibitors, typically in about 1 uL of DMSO according to a serial dilution, are added thereto. This assay is effectively started by the addition of FRET substrate (50 nM) and the combination is incubated for one hour. Final assay concentration of about 0.64 nM. The FRET assay is terminated with by addition of Tris buffer, which raises the pH to neutrality, and the fluorescence is determined. The FRET substrate is a peptide with commercially available fluorophore and quencher, on opposite sides of the BACE cleavage site. Proteolytic cleavage of the FRET substrate releases quenching of fluorescence (excitation 488 nm and […]).
# Cathepsin D (Cat D) = target: T2, Cathepsin D (Cat D) (Homo sapiens, UniProt P07339); experiment: In vitro enzymatic Cathepsin D (Cat D) FRET assay; assay type: biochemical; conditions: average IC50; first procedure; read-out: CatD IC50
# T2 construct: made in house; host or cells: CHO cells
# Method in brief: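 Recombinant human Cat D expressed in CHO cells, 9 nM, pre-incubated 1 h with inhibitor in 0.05 M citrate pH 3.5, 10% DMSO, 5 mM CHAPS. Reaction started with 20 nM FRET peptide substrate, run 1 h, stopped with Tris to neutral pH; fluorescence read at ex 500/em 580 nm.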
# [1] = system: Aβ40 in conditioned medium of cells stably expressing Amyloid Precursor Protein (APP); experiment: In vitro BACE cell-based assay (HEK cell assay, Aβ40 sandwich ELISA); conditions: Homo sapiens, HEK293; average IC50; read-out: BACE1 cell assay IC50
# Method in brief: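 APP-stable cells were cultured 24 h at 37 °C, then given compound as 10-point dose-response (top 100 μM or 10 μM; 0.1% DMSO final) for 24 h. Aβ40 in conditioned medium was measured by sandwich ELISA (pAb40 capture, biotinylated 6E10 detection, Eu time-resolved fluorescence). IC50 from percent inhibition versus concentration.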
# Abeta 40 = experiment: In vivo inhibition of beta-secretase: percent Abeta 40 reduction in CSF and brain; design: species or system rat; conditions: 10 mpk, after 4 hrs
# Text: In Vivo Inhibition of Beta-Secretase
# Several animal models, including mouse, rat, dog, and monkey, may be used to screen for inhibition of beta-secretase activity in vivo following administration of a test compound sample. Animals used in this invention can be wild type, transgenic, or gene knockout animals. For example, the Tg2576 mouse model, prepared and conducted as described in Hsiao et al., 1996, Science 274, 99-102, and other non-transgenic or gene knockout animals are useful to analyze in vivo inhibition of Amyloid beta peptide (Abeta) production in the presence of inhibitory test compounds. Generally, 2 to 18 month old Tg2576 mice, gene knockout mice or non-transgenic animals are administered test compounds formulated in vehicles, such as cyclodextran, phosphate buffers, hydroxypropyl methylcellulose or other suitable vehicles. One to twenty-four hours following the administration of compound, animals are sacrificed, and brains as well as cerebrospinal fluid (CSF) and plasma are removed for analysis of A-beta levels and drug or test compound concentrations (Dovey et al., 2001, Journal of Neurochemistry, 76, 173-181) Beginning at time 0, animals are administered by oral gavage, or other means of delivery such as intravenous injection, an inhibitory test compound of up to 100 mg/kg in a standard, conventional formulation, such as 2% hydroxypropyl methylcellulose, 1% Tween80. A separate group of animals receive 2% hydroxypropyl methylcellulose, 1% Tween80 alone, containing no test compound, and serve as a vehicle-control group. At the end of the test period, animals are sacrificed and brain tissues, plasma or cerebrospinal fluid are collected. Brains are either homogenized in 10 volumes (w/v) of 0.2% diethylamine (DEA) in 50 mM NaCl (Best et al., 2005, Journal of Pharmacology and Experimental Therapeutics, 313, 902-908), or in 10 volumes of 0.5% TritonX-100 in Tris-buffered saline (pH at about 7.6). Homogenates are centrifuged at 355,000 g, 4° C. for 30 minutes. CSF or brain supernatants are then analyzed for the presence of A-beta peptide by specific sandwich ELISA assays based on ECL (Electrochemiluminescence) technology. For example, rat Abeta40 is measured using biotinylated-4G8 (Signet) as a capture antibody and Fab40 (an in-house antibody specific to the C-terminal of Abeta40) as a detection antibody. For example, 4 hours after administration of 30 mg/kg oral dose of the test compound in 2% hydroxypropyl methylcellulose, 1% Tween80 (pH2.2) to 200 g male Sprague Dawley rats, amyloid beta peptide levels are measured for reduction by X % and Y % in cerebrospinal fluid and brain, respectively, when compared to the levels measured in the vehicle-treated or control […].
# Actual vehicles used: Oral: 2% HPMC, 1% Tween80, pH 2.2
# • IV: 5% EtOH, 45% Propylene glycol in 5% Dextrose
# The compounds of the invention may be shown to reduce the formation and/or deposition of amyloid beta peptide in the cerebrospinal fluid (CSF) as well as in the brain of a mouse or rat at either 3 mpk, 10 mpk or 30 mpk (mpk=mg compound per kg weight of the animal) dosing concentrations after 4 hrs.
# T2 sequence (P07339 65-412, species assumed): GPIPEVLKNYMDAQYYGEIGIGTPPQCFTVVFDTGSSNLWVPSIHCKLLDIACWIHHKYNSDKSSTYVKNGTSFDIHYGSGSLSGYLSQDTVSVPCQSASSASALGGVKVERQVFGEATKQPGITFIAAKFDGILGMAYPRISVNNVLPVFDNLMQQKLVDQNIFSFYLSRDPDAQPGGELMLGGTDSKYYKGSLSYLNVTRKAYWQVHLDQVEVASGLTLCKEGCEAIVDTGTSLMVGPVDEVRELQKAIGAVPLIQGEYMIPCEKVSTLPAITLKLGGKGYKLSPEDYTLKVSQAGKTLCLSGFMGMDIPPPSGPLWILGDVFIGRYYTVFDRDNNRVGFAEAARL
# Chain of BACE1 (P56817 46-501, species assumed): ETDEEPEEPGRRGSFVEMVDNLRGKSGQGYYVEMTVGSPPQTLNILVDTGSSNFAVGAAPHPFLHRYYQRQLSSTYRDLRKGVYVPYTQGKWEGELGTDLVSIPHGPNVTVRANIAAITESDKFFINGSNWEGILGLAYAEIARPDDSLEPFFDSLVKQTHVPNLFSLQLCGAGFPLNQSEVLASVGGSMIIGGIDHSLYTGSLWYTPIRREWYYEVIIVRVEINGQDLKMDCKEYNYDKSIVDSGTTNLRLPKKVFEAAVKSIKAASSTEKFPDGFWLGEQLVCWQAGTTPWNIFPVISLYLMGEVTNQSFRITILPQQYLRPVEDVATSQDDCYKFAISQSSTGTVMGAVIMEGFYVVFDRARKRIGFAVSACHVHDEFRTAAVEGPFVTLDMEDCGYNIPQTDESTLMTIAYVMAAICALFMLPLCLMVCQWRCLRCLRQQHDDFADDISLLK
Structure (SMILES),IC50 (BACE1) [µM],IC50 (human Bace2 protein) [µM],IC50 (Cathepsin D (Cat D)) [µM],IC50 [1] [µM],"inhibition in vivo at 10 mg/kg (Abeta 40; Abeta 40, rat CSF, read-out: % reduction of rat CSF levels at 10 pmk) [%]","inhibition in vivo at 10 mg/kg (Abeta 40; Abeta 40, rat brain, read-out: % reduction of rat brain levels at 10 mpk) [%]"
"CC#CCOc1cnc2c(Nc3ccc(F)c([C@@]4(C)N=C(N)[C@@]5(C)CC[C@@H]4S5(=O)=O)c3)nccc2n1 [Example 62, N-(3-((1S,2R,5R)-4-amino-2,5-dimethyl-8,8-dioxido-8-thia-3-azabicyclo[3.2.1]oct-3-en-2-yl)-4-fluorophenyl)-2-(2-butyn-1-yloxy)pyrido[3,4-b]pyrazin-5-amine]",0.001,0.007,124,0.001,,
"C[C@]1(c2cc(Nc3ncnc4cc(OCC5CC5)cnc34)ccc2F)N=C(N)[C@@]2(C)CC[C@@H]1S2(=O)=O [Example 139, N-(3-((1S,2R,5R)-4-amino-2,5-dimethyl-8,8-dioxido-8-thia-3-azabicyclo[3.2.1]oct-3-en-2-yl)-4-fluorophenyl)-7-(cyclopropylmethoxy)pyrido[3,2-d]pyrimidin-4-amine]",0.005,0.067,1280,0.005,,
"Cc1cc(Cl)cnc1C(=O)Nc1ccc(F)c([C@@]2(CF)N=C(N)[C@@]3(C)CC[C@@H]2S3(=O)=O)c1 (single isomer, unassigned) [Example 118]",0.017,0.002,> 400,0.062,,
"COc1cnc(C(=O)Nc2ccc(F)c([C@@]3(C)N=C(N)[C@@]4(CF)CC[C@@H]3S4(=O)=O)c2)c(F)c1 [Example 43, N-(3-((1S,2R,5R)-4-amino-5-(fluoromethyl)-2-methyl-8,8-dioxido-8-thia-3-azabicyclo[3.2.1]oct-3-en-2-yl)-4-fluorophenyl)-3-fluoro-5-methoxy-2-pyridinecarboxamide]",0.009,0.014,> 400,0.007,,
"C#CCOc1cnc(C(=O)Nc2ccc(F)c([C@@]3(C)N=C(N)[C@@]4(CF)CC[C@@H]3S4(=O)=O)c2)c(Cl)c1 [Example 60, N-(3-((1S,2R,5R)-4-amino-5-(fluoromethyl)-2-methyl-8,8-dioxido-8-thia-3-azabicyclo[3.2.1]oct-3-en-2-yl)-4-fluorophenyl)-3-chloro-5-(2-propyn-1-yloxy)-2-pyridinecarboxamide]",0.001,0.01,953,0.008,,
"C[C@]1(c2cc(Nc3ncc(F)c4cc(C#N)cnc34)ccc2F)N=C(N)[C@@]2(CF)CC[C@@H]1S2(=O)=O [Example 53, 8-((3-((1S,2R,5R)-4-amino-5-(fluoromethyl)-2-methyl-8,8-dioxido-8-thia-3-azabicyclo[3.2.1]oct-3-en-2-yl)-4-fluorophenyl)amino)-5-fluoro-1,7-naphthyridine-3-carbonitrile]",0.003,0.002,> 14.8,0.038,,
"C[C@]1(c2cc(NC(=O)c3ccc(C(F)(F)F)cn3)ccc2F)N=C(N)[C@@]2(CF)CC[C@@H]1S2(=O)=O [Example 110, N-(3-((1S,2R,5R)-4-amino-5-(fluoromethyl)-2-methyl-8,8-dioxido-8-thia-3-azabicyclo[3.2.1]oct-3-en-2-yl)-4-fluorophenyl)-5-(trifluoromethyl)-2-pyridinecarboxamide]",0.006,,536,0.005,65,54

# Further molecules by falling IC50 (BACE1), results first:
IC50 (BACE1) [µM],IC50 (human Bace2 protein) [µM],IC50 (Cathepsin D (Cat D)) [µM],IC50 [1] [µM],Structure (SMILES),"inhibition in vivo at 10 mg/kg (Abeta 40; Abeta 40, rat CSF, read-out: % reduction of rat CSF levels at 10 pmk) [%]","inhibition in vivo at 10 mg/kg (Abeta 40; Abeta 40, rat brain, read-out: % reduction of rat brain levels at 10 mpk) [%]"
0.008,0.058,1310,0.188,"C[C@]1(c2cc(Nc3nccc4nc(OCC(F)(F)F)cnc34)ccc2F)N=C(N)[C@@]2(CF)CC[C@@H]1S2(=O)=O [Example 112, N-(3-((1S,2R,5R)-4-amino-5-(fluoromethyl)-2-methyl-8,8-dioxido-8-thia-3-azabicyclo[3.2.1]oct-3-en-2-yl)-4-fluorophenyl)-2-(2,2,2-trifluoroethoxy)pyrido[3,4-b]pyrazin-5-amine]",,
0.003,0.076,> 400,0.048,"Cc1nc(OCC(F)(F)F)cnc1C(=O)Nc1ccc(F)c([C@@]2(C)N=C(N)[C@@]3(CF)CC[C@@H]2S3(=O)=O)c1 [Example 57, N-(3-((1S,2R,5R)-4-amino-5-(fluoromethyl)-2-methyl-8,8-dioxido-8-thia-3-azabicyclo[3.2.1]oct-3-en-2-yl)-4-fluorophenyl)-3-methyl-5-(2,2,2-trifluoroethoxy)-2-pyrazinecarboxamide]",,
0.003,0.019,596,0.003,"C#C[C@H](C)Oc1cnc(C(=O)Nc2ccc(F)c([C@@]3(C)N=C(N)[C@@]4(CF)CC[C@@H]3S4(=O)=O)c2)cn1 [Example 45, N-(3-((1S,2R,5R)-4-amino-5-(fluoromethyl)-2-methyl-8,8-dioxido-8-thia-3-azabicyclo[3.2.1]oct-3-en-2-yl)-4-fluorophenyl)-5-(((1S)-1-methyl-2-propyn-1-yl)oxy)-2-pyrazinecarboxamide]",,
0.002,0.002,> 118,0.003,"C[C@]1(c2cc(Nc3nccc4cc(C#N)cnc34)ccc2F)N=C(N)[C@@]2(C)CC[C@@H]1S2(=O)=O [Example 84, 8-((3-((1S,2R,5R)-4-amino-2,5-dimethyl-8,8-dioxido-8-thia-3-azabicyclo[3.2.1]oct-3-en-2-yl)-4-fluorophenyl)amino)-1,7-naphthyridine-3-carbonitrile]",,
